Publication PMC5588548, “Suramin Inhibits Osteoarthritic Cartilage Degradation by Increasing Extracellular Levels of Chondroprotective Tissue Inhibitor of Metalloproteinases 3” (Molecular Pharmacology, 2017)
“Also recorded” adds a separate entry of the source. Counter-ions that a name gives are not always drawn. Like-named read-outs stand apart in the source and are kept apart here.

Legend:
[1] = biological target: T1, human TIMP-3 (Homo sapiens, UniProt P35625); assay: Solid-phase binding of TIMP-3 to immobilized suramin or analogs (ELISA); details: TIMP-3 0.4–50 nM; for EC50: plates coated with 10 µg/ml compound, one-site specific binding model, mean ± S.E., n = 3; for Kd: solid-phase binding assay, plates coated 10 µg/ml, read-out: KD value for TIMP-3 binding to immobilized compound
T1 construct: made in house; host or cells: human embryonic kidney 293 cells
T1 sequence (P35625 24-211): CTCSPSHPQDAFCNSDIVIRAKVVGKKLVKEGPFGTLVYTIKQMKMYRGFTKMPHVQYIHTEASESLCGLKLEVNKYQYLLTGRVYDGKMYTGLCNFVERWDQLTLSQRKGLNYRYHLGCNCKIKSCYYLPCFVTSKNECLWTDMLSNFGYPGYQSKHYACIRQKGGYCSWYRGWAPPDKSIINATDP
Method: Glycosaminoglycan-binding ELISA plates (BD Life Sciences, Swindon, UK) were coated with suramin or its analogs (10 µg/ml in Tris-buffered saline, 18 hours, 25°C) ([Mahoney et al., 2004]) and wells were blocked with 0.2% gelatin in PBS (1 hour, 37°C). Wells were washed in PBS containing 0.1% Tween 20 after this and every subsequent step. Purified FLAG-tagged human TIMP-3 (0.4–50 nM) in blocking solution was applied to wells (3 hours, 37°C), and binding was detected with anti-FLAG M2 primary antibody and anti-mouse horseradish peroxidase–conjugated secondary antibody. 3,3′,5,5′-Tetramethylbenzidine (Becton Dickinson, Swindon, UK) substrate was added, the reaction was stopped when appropriate by adding 2 N H2SO4, and absorbance at 450 nm was measured using a FLUOstar Omega microplate reader (BMG Labtech, Aylesbury, Buckinghamshire, UK). Data (mean ± S.E., n = 3 technical repeats) were analyzed using Prism 7.0b software (GraphPad Software, La Jolla, CA) and EC50 values determined using a one-site specific binding model. Flat planar dimensions of suramin analogs were estimated using ICM-Pro software (Molsoft LLC, San Diego, CA).

[2] = test system: porcine cartilage explants; assay: Aggrecan release from porcine cartilage explants (DMMB assay, neo-epitope immunoblotting); type: cell-based; details: porcine cartilage explants; for protection of cartilage (release of aggrecan fragments) compared with suramin: 200 µg/ml compound; for IC50: Sus scrofa
Method: The effects of suramin on cartilage degradation were assessed using porcine or human cartilage explants. Explants were rested for 48 hours after dissection and were washed with serum-free DMEM. […]
Aggrecan degradation was analyzed by quantifying aggrecan fragments released into the conditioned media using the dimethylmethylene blue (DMMB) dye-binding assay ([Farndale et al., 1986]) (mean ± S.D., n = 3) and by immunoblotting with neo-epitope antibodies that recognize ADAMTS-cleaved but not intact aggrecan. For immunoblotting, conditioned media were deglycosylated by adding an equal volume of 200 mM sodium acetate and 50 mM Tris/HCl, pH 6.8, containing chondroitinase and β-endoglycosidase (0.05 U each; 18 hours, 37°C; Sigma-Aldrich). Aggrecan fragments were precipitated by adding five volumes of ice-cold acetone (18 hours, −20°C). After centrifugation (13,000 rpm, 10 minutes, 4°C), pellets were resuspended in SDS sample buffer, separated by electrophoresis on a 6% (v/v) polyacrylamide gel, and blotted onto polyvinylidene fluoride. Membranes were blocked with 5% (m/v) BSA in Tris-buffered saline and incubated with either a rabbit antibody that recognizes the AGEG neo-epitope generated by ADAMTS cleavage of the TAQE^1771∼^1772AGEG bond of aggrecan ([Troeberg et al., 2008]) or a mouse antibody that recognizes the ARGSV neo-epitope generated by ADAMTS cleavage of the NITEGE^373∼^374ARGSV bond ([Hughes et al., 1995]).

[3] = test system: HTB94 chondrosarcoma cells; assay: Accumulation of endogenous TIMP-3 in medium of HTB94 cells; type: cell-based; details: 200 µg/ml compound, 36 hours, immunoblotting
Method: Cells (HTB94 chondrosarcoma cells, primary porcine chondrocytes, or human osteoarthritic chondrocytes) were plated overnight (6 × 10^5 cells per well of a 12-well plate) in DMEM containing 10% FCS and washed three times in serum-free DMEM.
Media were harvested, precipitated with trichloroacetic acid, and analyzed by immunoblotting using a rabbit anti–TIMP-3 polyclonal antibody (AB6000; Millipore, Hertfordshire, UK) and an alkaline phosphatase–conjugated anti-rabbit secondary antibody (Promega). […]

[4] = test system: purinergic signaling in chondrocytes; design: method as in Varani et al., 2008; details: compared with suramin; ref Varani et al., 2008; cited from earlier work
[5] = retinoic acid 1 µM, 48 hours, DMMB assay

Structure (SMILES): O=C(Nc1cc(C(=O)Nc2ccc(S(=O)(=O)O)cc2)cc(C(=O)Nc2ccc(S(=O)(=O)O)cc2)c1)Nc1cc(C(=O)Nc2ccc(S(=O)(=O)O)cc2)cc(C(=O)Nc2ccc(S(=O)(=O)O)cc2)c1 [NF110, 4,4′,4′′,4′′′-[carbonylbis[imino-5,1,3-benzenetriylbis(carbonylimino)]]tetrakisbenzenesulfonic acid tetrasodium salt]
- EC50 [1]: 6.88 ± 0.96 nM

Structure (SMILES): Cc1ccc(C(=O)Nc2ccc(CP(=O)([O-])O)cc2CP(=O)([O-])O)cc1NC(=O)c1cccc(NC(=O)Nc2cccc(C(=O)Nc3cc(C(=O)Nc4ccc(CP(=O)([O-])O)cc4CP(=O)([O-])O)ccc3C)c2)c1.[Na+].[Na+].[Na+].[Na+] [NF546]
- protection of cartilage (release of aggrecan fragments) compared with suramin [2, 5]: less effective
- TIMP-3 accumulation in the medium relative to suramin, defined as 100% [3]: minimal efficacy; also recorded: less effective

Structure (SMILES): O=C(Nc1cccc(C(=O)Nc2ccc(S(=O)(=O)O)c3cc(S(=O)(=O)O)cc(S(=O)(=O)O)c23)c1)Nc1cccc(C(=O)Nc2ccc(S(=O)(=O)O)c3cc(S(=O)(=O)O)cc(S(=O)(=O)O)c23)c1 [NF023, 8,8′-[carbonylbis(imino-3,1-phenylenecarbonylimino)]bis-1,3,5-naphthalene-trisulphonic acid, hexasodium salt]
- EC50 [1]: 26.5 ± 7.5 nM

Structure (SMILES): O=C(Nc1ccc(C(=O)Nc2ccc(C(=O)Nc3ccc(S(=O)(=O)O)c4cc(S(=O)(=O)O)cc(S(=O)(=O)O)c34)cc2)cc1)Nc1ccc(C(=O)Nc2ccc(C(=O)Nc3ccc(S(=O)(=O)O)c4cc(S(=O)(=O)O)cc(S(=O)(=O)O)c34)cc2)cc1 [NF279, 8,8′-[carbonylbis(imino-4,1-phenylenecarbonylimino-4,1-phenylenecarbonylimino)]bis-1,3,5-naphthalenetrisulfonic acid hexasodium salt]
- IC50 ([2]; 48 h, retinoic acid 1 µM, 48 hours, DMMB assay, read-out: IC50 for inhibition of aggrecan release): 15.6 ± 10 µg/mL
- IC50 ([2]; µg/ml value given in molar units, read-out: IC50 for chondroprotective activity): 11.6 µM
- improvement of IC50 value relative to suramin [2]: 6 fold
- protection of cartilage (release of aggrecan fragments) compared with suramin [2, 5]: markedly improved activity
- IC50 for inhibition of aggrecan release [2, 5]: 15 µg/mL
- TIMP-3 accumulation in the medium relative to suramin, defined as 100% [3]: 233% ± 73%
- EC50 [1]: 0.85 ± 0.09 nM
- Kd [1]: 0.85 ± 0.09 nM
- inhibition of purinergic signaling in chondrocytes [4]: less effective than suramin

Structure (SMILES): O=C(Nc1cc(C(=O)Nc2ccc(S(=O)(=O)O)cc2S(=O)(=O)O)cc(C(=O)Nc2ccc(S(=O)(=O)O)cc2S(=O)(=O)O)c1)Nc1cc(C(=O)Nc2ccc(S(=O)(=O)O)cc2S(=O)(=O)O)cc(C(=O)Nc2ccc(S(=O)(=O)O)cc2S(=O)(=O)O)c1 [NF449, 4,4′,4′′,4′′′-[carbonylbis(imino-5,1,3-benzenetriyl-bis(carbonylimino))]tetrakis-1,3-benzenedisulfonic acid, octasodium salt]
- EC50 [1]: 4.66 ± 0.69 nM

Structure (SMILES): O=C(Nc1cccc(C(=O)Nc2cc(C(=O)Nc3ccc(S(=O)(=O)O)c4cc(S(=O)(=O)O)cc(S(=O)(=O)O)c34)ccc2F)c1)Nc1cccc(C(=O)Nc2cc(C(=O)Nc3ccc(S(=O)(=O)O)c4cc(S(=O)(=O)O)cc(S(=O)(=O)O)c34)ccc2F)c1 [NF157, 8,8′-[carbonylbis[imino-3,1-phenylenecarbonylimino(4-fluoro-3,1-phenylene)carbonylimino]]bis-1,3,5-naphthalenetrisulfonic acid hexasodium salt]
- EC50 [1]: 1.55 ± 0.11 nM
- Kd [1]: 1.5 ± 0.11 nM

Structure (SMILES): Cc1ccc(C(=O)Nc2ccc(CP(=O)([O-])O)cc2CP(=O)([O-])O)cc1NC(=O)c1cccc(NC(=O)Nc2cccc(C(=O)Nc3cc(C(=O)Nc4ccc(CP(=O)([O-])O)cc4CP(=O)([O-])O)ccc3C)c2)c1.[Na+].[Na+].[Na+].[Na+] [NF546, 4,4′-(carbonylbis(imino-3,1-phenylene-carbonylimino-3,1-(4-methyl-phenylene)carbonylimino))-bis(1,3-xylene-α,α′-diphosphonic acid tetrasodium salt]
- EC50 [1]: > 100 nM

Structure (SMILES): Cc1ccc(C(=O)Nc2cc(S(=O)(=O)[O-])cc3ccc(S(=O)(=O)[O-])cc23)cc1NC(=O)Nc1cc(C(=O)Nc2cc(S(=O)(=O)[O-])cc3ccc(S(=O)(=O)[O-])cc23)ccc1C.[Na+].[Na+].[Na+].[Na+] [NF340, 4,4′-(carbonylbis(imino-3,1-(4-methyl-phenylene)carbonylimino))bis(naphthalene-2,6-disulfonic acid) tetrasodium salt]
- protection of cartilage (release of aggrecan fragments) compared with suramin [2, 5]: less effective
- TIMP-3 accumulation in the medium relative to suramin, defined as 100% [3]: minimal efficacy; also recorded: less effective
- EC50 [1]: > 100 nM
